According to patent US20230181560A1, “COMPOUND FOR PREVENTING OR TREATING A VIRAL INFECTION” (priority 2020, published 2023):
Read-outs that look alike come from different tables or passages of the source.

Assays:
[1] = tested on: caspases; settings: cited from earlier work
[2] = tested on: HIV; settings: WO2009/092897; cited from earlier work
[3] = tested on: SIV; settings: cited from earlier work
[4] = tested on: HIV-1 lai; assay: Intracellular P24 capsid protein staining by flow cytometry in HIV-1 infected CD4 T lymphocytes; format: cell-based; settings: 20 µM added every two days, staining day 4, 5, 6 post-infection
[5] = tested on: CD4 T lymphocytes infected with HIV-1 lai; assay: Annexin V staining (cell mortality/apoptosis) of HIV-1 infected CD4 T lymphocytes; format: cell-based; settings: 20 µM every two days; day 5 post-infection
[6] = tested on: SARS-CoV-2; assay: microbe, parasite or virus in culture; format: cell-based
[7] = tested on: SARS-CoV-2; format: cell-based
[8] = tested on: SARS-CoV-2; format: cell-based; remark: listed apart in the source
[9] = tested on: Vero E6 cells

Compound: CC(C)C(NC(=O)c1ccc2ccccc2n1)C(=O)NC(CC(=O)O)C(=O)COc1c(F)cccc1F (stereo not shown) [Q-VD-OPh]
- caspase inhibitory activity [1]: broad caspase inhibitor
- inhibition of viral replication in HIV-infected cells [2]: inhibition of viral replication
- AIDS disease progression and control of viral replication ([3]; SIV-infected rhesus macaques, five injections during primary infection): prevents AIDS disease progression
- cancer development after treatment ([3]; six monkeys, four or five years after treatment): none of the animals have developed a cancer

Compound: CC(C)C(NC(=O)c1ccc2ccccc2n1)C(=O)NC(CCC(=O)O)C(=O)COc1c(F)cccc1F (stereo not shown) [Q-VE-OPh]
- antiviral effect on HIV-1 replication (intracellular P24 capsid protein) [4]: same antiviral effect as the comparative Q-VD-OPh molecule
- cell mortality (Annexin V surface staining) [5]: much less mortality than the infected cells
- effect on the entry of the virus into the cell [6]: no significant effect
- inhibition at 50 µM ([6]; Severe acute respiratory syndrome coronavirus 2, Vero C1008, 72 h, read-out: inhibition of SARS-CoV-2 viral replication): ~99%
- inhibition at 25 µM ([6]; Severe acute respiratory syndrome coronavirus 2, Vero C1008, 72 h, 25 µM, read-out: inhibition of SARS-CoV-2 viral replication): ~70%
- expression of the viral Spike and Nucleocapsid proteins within infected cells [7]: reduce significantly
- relative expression of the Nucleocapsid (N) and NSP6 genes in supernatants of infected cells [8]: reduce significantly
- toxicity on Vero E6 cells ([9]; 100 µM added for three days): without any toxicity
- toxicity on Vero E6 cells ([9]; 25, 50, 100 µM, infected (MOI 0.05) or not, 72 h post-infection): no toxicity effect
- caspase inhibitory activity [1]: does not show any caspase inhibitory activity

Compound: CC(C)[C@H](NC(=O)c1ccc2ccccc2n1)C(=O)N[C@@H](CC(=O)O)C(=O)COc1c(F)cccc1F [QVD-Unmethylated]
- antiviral effect on HIV-1 replication (intracellular P24 capsid protein) [4]: same antiviral effect
- cell mortality (Annexin V surface staining) [5]: The results were the same

Compound: COC(=O)C[C@H](NC(=O)[C@@H](NC(=O)c1ccc2ccccc2n1)C(C)C)C(=O)COc1c(F)cccc1F [QVD-methylated]
- antiviral effect on HIV-1 replication (intracellular P24 capsid protein) [4]: same antiviral effect
- cell mortality (Annexin V surface staining) [5]: contrary

Compound: CCO[C@@H]1OC(=O)C[C@@H]1NC(=O)[C@@H]1CCCN1C(=O)[C@@H](NC(=O)c1ccc(N)c(Cl)c1)C(C)(C)C [VX-765]
- antiviral effect on HIV-1 replication (intracellular P24 capsid protein) [4]: no effect on the viral replication
